Laboratory results from US11911377B2, “Method for treating hypertension by using compound” (Fu Jen Catholic University, priority 2021, dated 2024).

Tests used:
SHR primary VSMCs = experiment: MTT assay for cell viability of SHR primary VSMCs; type: cell-based, rat; settings: 1, 2.5, 5, 10, 30, or 50 μmol/L Y16, 24 hours
Experimental: The procedure of 3-(4,5-dimethylthiazol-2-yl)-2,5-diphenyltetrazolium bromide (MTT) assay for cell viability used in this example is as follows. The cytotoxicity results for Y16 or Rhosin were determined using an MTT-based in vitro assay. Briefly, the media from the cell cultures was discarded and carefully aspirated. Next, 50 μL of serum-free media and 50 μL of MTT solution were added into each well. The plate was then incubated at 37° C. for 3 hours. After incubation, 150 μL of MTT solvent (4 mM HCl, 0.1% NP40 in isopropanol) was added into each well. The plate was then wrapped in foil and shaken on an orbital shaker for 15 minutes, and the absorbance was read at OD=590 nm.

[1] = system: spontaneously hypertensive rats (SHRs); experiment: Physiological signals recording (BP, HR) in anesthetized SHRs after intravenous injection; type: in vivo, rat; settings: for decrease of BP: versus 0 min
Description: According to the present invention, the statistical analysis used in the following examples is described as follows. For the physiological signals recording, the data from different time intervals of each rat was compared with that from before Y16 and Rhosin administration. Considering the differences of physiological conditions among individuals, the BP and HR are not calculated by the absolute value measured, but by the percentage of the BP or HR measured at each time point relative to those measured before administration (0 minutes). All data were representative of at least four independent experiments.
(§1) The animal model used in this example or the following examples is illustrated as follows. The Institutional Animal Care and Use Committee of the Fu Jen Catholic University, New Taipei, Taiwan (Approval No A10660), approved all of the animal procedures and experimental protocols. Male 16-week-old SHRs (body weight range: 350-370 g) were purchased from the National Laboratory Animal Center, Taipei, Taiwan. The animals were housed at a temperature of 21° C. under a 12 h light/dark cycle and fed a regular pellet diet. The animals were divided into three main groups—the Y16 group, the Rhosin group, and the Y16+Rhosin group. Each group was further divided into several subgroups according to the administered Y16 and Rhosin dose. Their concentrations are listed below: Y16 group: 0.2 mg/kg, 1 mg/kg, 5 mg/kg, 10 mg/kg, 20 mg/kg; Rhosin group: 5 mg/kg, 10 mg/kg, 20 mg/kg; Y16+Rhosin group: (Y16, 3 mg+Rhosin, 7 mg)/kg, (Y16, 5 mg+Rhosin, 10 mg)/kg.
(§2) The procedure of physiological signals recording and blood tests used in this example or the following examples is as follows. The rats were anesthetized with Zoletil 50 (30 mg/kg, intraperitoneal injection) and then attached to a physiological signal recording device. The Y16 and Rhosin were administered to them by intravenous injection. Their electrocardiography (ECG), heart rate (HR), and blood pressure (BP) measurements were taken for 90 minutes. After observing and recording the physiological signals, blood was drawn from the rats in an appropriate test tube and stored for subsequent tests for complete blood cell count, liver function and renal function. The rats were then sacrificed. Their heart, lungs, liver, and kidneys were removed and stored in paraformaldehyde for further histological examinations.

[2] = system: myosin phosphatase target subunit 1 (MYPT1) phosphorylation; experiment: MYPT1 phosphorylation by Western blot in Ang II-stimulated SHR VSMCs; type: cell-based, rat
Description: (§3) The culture procedure of the primary cultured vascular smooth muscle cells (VSMCs) used in this example or the following examples is as follows. SHRs were anesthetized with Zoletil 50, and the thoracic aortas were immediately excised. The samples were then carefully cleaned of connective tissue and adherent fat. Each isolated aorta was cut open longitudinally, followed by endothelial removal by gently grazing the intimal surface. The denuded aortas were cut into approximately 2 mm^2 sections and then placed with the intimal side down. The M199 medium supplemented with 20% fetal bovine serum and antibiotics (100 U/ml penicillin and 100 μg/ml streptomycin) were then gently added to cover the tissues without disturbing the orientation of the explants. VSMCs were allowed to grow out from the explants for 7-10 days culture, and the tissues were removed.
The treatment method of the small molecule compounds used in this example or the following examples is as follows. Small molecule compounds were dissolved in pure water to test their effects on the VSMCs. Different concentrations of Y16 or the combination of Y16+Rhosin were administered for 24 hours, followed by stimulation with 10^−7M angiotensin II (Ang II) for 10 min. The Y16 concentrations used were as follows: 1 μM, 2.5 μM, 5 μM, 10 μM, 30 μM, 50 μM.
The procedure of cell harvest and protein extraction used in this example or the following examples is as follows. Culture dishes were placed on ice and washed twice with ice-cold phosphate-buffered saline (PBS). All subsequent procedures were performed over ice. […] The protein concentrations were determined using a BSA Protein Assay kit.
The procedure of Western blot analysis used in this example or the following examples is as follows. […] Signals were visualized using a UVP Imaging System (UVP) or with X-ray film, and the results were expressed as the densitometric ratio of target protein/GAPDH or phosphor-MYPT1/total-MYPT1. […]

[3] = system: spontaneously hypertensive rats (SHRs); experiment: Blood tests (complete blood cell count, liver function) in SHRs after dosing; type: in vivo, rat; settings: for platelets count (PLC) or white blood cell counts (WBC): significant versus control
Experimental: as §1, §2
The animal model and experimental procedure of this example are the same as those described in Example 6. To observe whether the use of Y16 or Rhosin might have adverse effects or even harm to the animals, the blood of rats was drawn for the blood test after collecting the required physiological signals.

LARG-RhoA interaction = LARG-RhoA interaction by co-immunoprecipitation and Western blot in Ang II-stimulated SHR VSMCs; type: cell-based, rat
Description: as §3
The treatment method of the small molecule compounds used in this example or the following examples is as follows. Small molecule compounds were dissolved in pure water to test their effects on the VSMCs. […]
The procedure of cell harvest and protein extraction used in this example or the following examples is as follows. […] The protein concentrations were determined using a BSA Protein Assay kit. […]

[4] = system: spontaneously hypertensive rats (SHRs); experiment: Histological examination (HE) of heart, liver, lung and kidney of SHRs; type: in vivo, rat; settings: doses used in the experiments
Experimental: as §2
The procedure of histological examination used in this example is as follows. The tissues were fixed in 4% paraformaldehyde overnight and then embedded in paraffin for histological examination. The transverse sections (4 μm) were incubated at 75˜85° C. for 10 minutes, followed by stained with hematoxylin/eosin (HE), and examined under a light microscope. Severity of lesions was graded according to the methods described by Shackelford et al. (2002). […]

platelets count (PLC) or white blood cell counts (WBC) ([3]; 0.2 mg/kg iv): slightly high
platelets count (PLC) or white blood cell counts (WBC) ([3]; 1 mg/kg iv): slightly high
abnormalities regarding complete blood cell count and liver function ([3]; doses used in the experiments, iv): did not cause any overt abnormalities
Structure (SMILES): Cc1cccc(COc2cccc(/C=C3\C(=O)NN(c4ccccc4)C3=O)c2)c1 [Y16, (E)-4-(3-(3-methylbenzyloxy)benzylidene)-1-phenylpyrazolidine-3,5-dione]
effect on the growth (cell viability) of SHR VSMCs (SHR primary VSMCs): no conspicuous effect on the growth
effect on BP ([1]; 0.2 mg/kg iv): no effects on BP
effect on BP ([1]; 1 mg/kg iv): no effects on BP
duration of BP decrease ([1]; 5 mg/kg iv): 30 min
decrease of BP ([1]; 5 mg/kg iv): 21%
BP as percentage of BP before administration (0 min) ([1]; 5 mg/kg iv, p=0.0081): 79%±13%
duration of BP decrease ([1]; 10 mg/kg iv): over 60 minutes
decrease of BP ([1]; 10 mg/kg iv): 21%
BP as percentage of BP before administration (0 min) ([1]; 10 mg/kg iv, p=0.0007): 79%±12%
duration of BP decrease ([1]; 20 mg/kg iv): over 60 minutes
BP as percentage of BP before administration (0 min) ([1]; 20 mg/kg iv, 20 minutes, p=0.0187): 58%±8%
reduction of HR ([1]; 20 mg/kg iv, for 30 minutes, not statistically significant): 16%
maximum blood pressure reduction effect ([1]; 20 mg/kg iv, in 20 minutes): 42%
HR as percentage of HR before administration (0 min) ([1]; 20 mg/kg iv, p=0.1067): 84%±8%
phospho-MYPT1 normalized to total-MYPT1 ([2]; 5 μM Y16, 24 h, then 10^−7M Ang II 10 min, control 0.994±0.048, P=0.041): 0.642±0.199
inhibition of MYPT1 phosphorylation ([2]; Y16 1-50 μM, 24 h): dose-dependent inhibition
working concentrations required for the effective inhibition of MYPT1 phosphorylation ([2]; lowest concentration with statistically significant difference): 5 µM
LARG-RhoA interaction, relative amount of RhoA normalized to GAPDH (LARG-RhoA interaction; 50 μM Y16, 24 h, then 10^−7M Ang II 10 min, control 0.939±0.121, p<0.001): 0.469±0.074
inhibition of LARG-RhoA complex formation induced by Ang II (LARG-RhoA interaction; Y16 1-50 μM, 24 h): dose-dependently inhibited
injuries by histological analyses of heart, liver, lungs, and kidneys [4]: did not cause any overt injuries
